Earlier results in patent US20020165594A1, “Apparatus and method of photodynamic eradication of organisms utilizing pyrrolnitrin” (Merrill A. Biel, priority 2001, published 2002).

Details: orally and intravenously in high doses

**Q.** For `CN(C)c1ccc2nc3ccc(=[N+](C)C)cc-3sc2c1` [Methylene blue], which “toxic effects on administration to humans” value is on record?
**A.** without any toxic effects
